Source: US20080279812A1, “Disease Prevention and Vaccination Prior to Thymic Reactivation” (Norwood Immunology, Ltd., priority 2003, published 2008)
Where a SMILES comes first, the peptide text is derived from it. [ ]: non-standard residue; d: D form. dPhe(4-Cl) = N[C@H](Cc1ccc(Cl)cc1)C(=O)O; d2Nal = N[C@H](Cc1ccc2ccccc2c1)C(=O)O; Lys(iPr) = CC(C)NCCCC[C@H](N)C(=O)O; NMeY = CN[C@@H](Cc1ccc(O)cc1)C(=O)O; d3Pal = N[C@H](Cc1cccnc1)C(=O)O

How the values were obtained:
[1] = tested on: sex steroids; settings: single injection of sufficient dose; cited from earlier work
[2] = tested on: thymus, spleen and lymph node cell numbers; experiment: Chemical castration compared to surgical castration, T cell regeneration after cyclophosphamide; format: in vivo; settings: mice
Text: FIG. 9: Changes in thymus (open bars), spleen (gray bars) and lymph node (black bars) cell numbers following treatment with cyclophosphamide, a chemotherapy agent, and surgical or chemical castration performed on the same day. Note the rapid expansion of the thymus in castrated animals when compared to the non-castrate (cyclophosphamide alone) group at 1 and 2 weeks post-treatment. In addition, spleen and lymph node numbers of the castrate group were well increased compared to the cyclophosphamide alone group. (n=34 per treatment group and time-point).
T cell Depletion Using Cyclophosphamide. Old mice (e.g., 2 years old) were injected with cyclophosphamide (200 mg/kg body wt over two days) and castrated.
FIG. 9 illustrates the use of chemical castration compared to surgical castration in enhancement of T cell regeneration. […] The enhancing effects were equivalent on thymic expansion and also the recovery of spleen and lymph node. The kinetics of chemical castration are slower than surgical, that is, mice take about 3 weeks longer to decrease their circulating sex steroid levels. However, chemical castration is still as effective as surgical castration and can be considered to have an equivalent effect.

[3] = GnRH agonist in metastatic prostate cancer, haemopoiesis and neutrophil count (Example 28); format: in vivo, human; settings: within the first 14 days of therapy
Description: All patients also received an anti-androgen drug. Cosudex® may also be given (5 mg/day or 50 mg/day orally) for 1 month. All patients undergo a Full Blood Analysis (FBA) prior to the commencement of therapy. FBA involves standard pathology analysis of lymphocytes, white blood cells, hematocrit and red blood cell content. In addition, analysis of immunological parameters including T cell stimulation, cytokine production, immune cell subsets and TREC analysis are performed. Additionally, blood samples from each patient are drawn at days −2, 0, 1, 2, 3, 7, 10, 14, 21, and 28, and monthly thereafter for 6 months. The blood samples are then evaluated for WBC, neutrophils, T cells (by FACS analysis, as described in detail above), granulocytes levels, and hematocrit, using the methods described in detail elsewhere herein, as well as methods well known to those skilled in the art.

[4] = tested on: H1N1 strains of Influenza; format: in vivo, human; settings: patients in all groups, after influenza vaccination
[5] = tested on: sex steroids; settings: 30 mg injection; cited from earlier work
[6] = GnRH analog before allogeneic BMT (Example 27); format: in vivo, human
Description: In a randomized unblinded study 20 patients are treated with a GnRH analog prior to receiving a BMT. This patient group is to a control group (n=19) who also undergo a BMT, but will not receive a GnRH analog.
All patients receive an allogeneic graft from a matched donor in accordance with accepted medical techniques (Lincz et al., (2001) Leuk. and Lymph. 40: 373).
Prior to transplant, the BM from all patients is ablated using standard ablating drugs and techniques (Segeren et al., (1999). Br. J. Haem. 105:127-130).
Blood samples from each patient are drawn at days −21, −2, 0, 1, 2, 3, 7, 10, 14 and 21. The blood samples are then evaluated for WBC, neutrophils, T cells (by FACS analysis, as described in detail above), granulocytes levels, and hematocrit, using the methods described in detail elsewhere herein, as well as methods well known to those skilled in the art.
Additionally, all patients are monitored for infection rates (including viral infection), the use of antibiotics, febrile neutropenia, and mean days of severe neutropenia (ANC<0.5×10^9/L). These analyses are performed as outlined above, with the patients being followed up at 1 month, 3 months, 6 months and 9 months from the date of transplant.

[7] = G-CSF with or without Lupron in small cell lung cancer patients on chemotherapy (Example 26); format: in vivo, human
[8] = tested on: thymic cellularity; experiment: IL-7 administration with or without castration in allogeneic HSCT recipients, thymic cellularity; format: in vivo, mice
Text: Mice and HSCT. Male C57BL/6J (B6, H-2b), C3FeB6F1/J([B6 3 C3H]F1; H-2b/k), B10.BR (H-2k), B6D2F1/J (H-2b/d), CBA/J (H-2k), Balb/c (H2-d), IL7−/− and KGF−/− mice were obtained from the Jackson Laboratory (Bar Harbor, Me.) and used in experiments when they were between 8 and 12 weeks of age. KGF−/− and IL7−/− were used between 4 and 7 months of age. HSCT protocols were approved by the Memorial Sloan-Kettering Cancer Center Institutional Animal Care and Use Committee. The BM cells were removed aseptically from femurs and tibias. Donor BM was depleted of T cells by incubation with anti-Thy-1.2 for 30 mins. at 4° C. followed by incubation with Low-TOX-M rabbit complement (Cedarlane Laboratories, Hornby, ON, Canada) for 1 hour at 37° C. Splenic T cells (for GVHD analysis) were obtained by purification over a nylon wool column followed by red cell removal with ammonium chloride red cell lysis buffer. Cells (5×10^6 BM cells with or without splenic T cells and leukemia cells) were resuspended in Dulbecco modified essential medium (Life Technologies, Grand Island, N.Y.) and transplanted by tail vein infusion (0.25 mL total volume) into lethally irradiated recipients on day 0. Prior to transplantation, on day 0, recipients received 1300 cGy total body irradiation (^137Cs source) as split dose with 3 hours between doses (to reduce gastrointestinal toxicity). Mice were housed in sterilized microisolator cages and received normal chow and autoclaved hyperchlorinated drinking water (pH 3.0).
Administration of IL-7. IL-7 were either given from days 0 to 13 or 21 to 27 intraperitoneally at 10 μg/day for immune reconstitution studies. PBS was injected into control mice at the same time-points.
Flow Cytometric Analysis. BM cells, splenocytes or thymocytes were washed in FACS buffer (phosphate buffered saline (PBS)/2% bovine serum albumin (BSA)/0.1% azide) and 1-3×10^6 cells were incubated for 30 mins. at 4° C. with CD16/CD32 FcR block. Cells were then incubated for 30 mins. at 4° C. with primary antibodies and washed twice with FACS buffer. Where necessary, cells were incubated with conjugated Streptavidin for a further 30 mins. at 4° C. The stained cells were resuspended in FACS buffer and analyzed on a FACSCalibur™ flow cytometer (Becton Dickinson, San Jose, Calif.) with CellQuest™ software.

[9] = tested on: IL-7-dependent murine pre-B cell line 2E8; experiment: Thymidine incorporation proliferation assay with IL-7-dependent pre-B cell line; format: cell-based; settings: 2E8 cell line
Description: Tissue culture medium consisted of RPMI 1640 supplemented with 10% heat inactivated fetal calf serum, 100 U/mL penicillin, […] streptomycin, and 2 mM L-glutamine (as well as […] 2-mercaptoethanol for the culture of 32Dp210 cells and proliferation assays).

[10] = cited from earlier work

## CC(=O)N[C@H](Cc1ccc2ccccc2c1)C(=O)N[C@H](Cc1ccc(Cl)cc1)C(=O)N[C@H](Cc1cccnc1)C(=O)N[C@@H](CO)C(=O)N(C)[C@@H](Cc1ccc(O)cc1)C(=O)N[C@H](CC(N)=O)C(=O)N[C@@H](CC(C)C)C(=O)N[C@@H](CCCCNC(C)C)C(=O)N1CCC[C@H]1C(=O)N[C@H](C)C(N)=O [Abarelix, abarelix] (Ac-[d2Nal][dPhe(4-Cl)][d3Pal]S[NMeY][dN]L[Lys(iPr)]P[dA]-NH2)
[1]
  time to castration: 5 to 8 days

## CCNC(=O)[C@@H]1CCCN1C(=O)[C@H](CCCN=C(N)N)NC(=O)[C@H](CC(C)C)NC(=O)[C@@H](Cc1c[nH]c2ccccc12)NC(=O)[C@H](Cc1ccc(O)cc1)NC(=O)[C@H](CO)NC(=O)[C@H](Cc1c[nH]c2ccccc12)NC(=O)[C@H](Cc1cnc[nH]1)NC(=O)[C@@H]1CCC(=O)N1 [Deslorelin]
[2]
  additional time to decrease circulating sex steroid levels versus surgical castration: about 3 weeks
[2]; injected for four weeks
  rate of regeneration post-cyclophosphamide treatment compared to surgical castration: comparable rate of regeneration
[2]; post-cyclophosphamide
  enhancing effects on thymic expansion and recovery of spleen and lymph node versus surgical castration: equivalent

## CCNC(=O)[C@@H]1CCCN1C(=O)[C@H](CCCNC(=N)N)NC(=O)[C@H](CC(C)C)NC(=O)[C@@H](CC(C)C)NC(=O)[C@H](Cc1ccc(O)cc1)NC(=O)[C@H](CO)NC(=O)[C@H](Cc1c[nH]c2ccccc12)NC(=O)[C@H](Cc1c[nH]cn1)NC(=O)[C@@H]1CCC(=O)N1 [Lupron®, leuprolide acetate]
[3]
  patients with an increase in haemopoiesis (T cell analysis) and neutrophil count versus baseline: approximately 70%
[4]
  hemagglutination-inhibition antibody titer versus prior to therapy: higher hemagglutination-inhibition antibody titer
[5]
  duration of sex steroid ablation: four months
[6]; 3, 6 and 9 months from transplant
  infection rates between the 2 groups: statistically different
[6]; up to day 21 from transplantation
  WBC counts, mean days of severe Neutropenia (ANC <500/mm^3) and febrile neutropenia versus non-treated group: clinically and statistically significant reduction
[6]; up to month 1
  incidence of viral and other infection rates between the two groups: not be statistically significant
[7]; G-CSF plus low dose Lupron 11.25 mg (Group 3)
  results versus higher Lupron dosage (Group 2): not statistically different
[7]; Lupron 22.5 mg on day 14 pre-chemotherapy (Group 4)
  results versus Group 2: not statistically different

## IL-7: Recombinant human IL-7 provided by Cytheris
[8]; day 14 after allo-HSCT
  thymic cellularity, combined castration and IL-7 versus castrated group: no significant difference
  thymic cellularity, combined castration and IL-7 versus control: significantly more cells
[8]; day 14 after allo-HSCT, 10 μg/day i.p. days 0-13
  thymic cellularity, IL-7 treated sham-castrated versus PBS treated sham-castrated: no difference
[8]; day 28 after allo-HSCT, IL-7 days 21-27
  thymic cellularity, IL-7 alone group versus control group: significantly higher than the control group
[8]; day 28 after allogeneic HSCT
  effect of combination of IL-7 treatment and castration on thymic cellularity: additive effect
[9]
  proliferative effect on murine cells: equal to murine IL-7

B1: G-CSF: granulocyte colony stimulating factor, Neupogen (Amgen) (protein, UniProt P09919 31-207, looked up)
Granulocyte …: TPLGPASSLPQSFLLKCLEQVRKIQGDGAALQEKLVSECATYKLCHPEELVLLGHSLGIPWAPLSSCPSQALQLAGCLSQLHSGLFLYQGLLQALEGISPELGPTLDTLQLDVADFATTIWQQMEELGMAPALQPTQGAMPAFASAFQRRAGGVLVASHLQSFLEVSYRVLRHLAQP
modifications: filgrastim, N-terminal Met
[10]; other Phase I/II trials
  neutrophils: measurable increases in neutrophils
[10]; small cell lung cancer, 4-8 μg/kg/day s.c. days 4-17 after chemotherapy, placebo-controlled
  incidence of infection (febrile neutropenia, infection rates, in-patient hospitalization, antibiotic use): clinically and statistically significant decrease

B2: Neulasta®: Amgen product given as single SC dose on day 2 of each chemotherapy cycle; called GM-CSF in the text (protein, UniProt P09919 31-207, looked up)
Granulocyte …: TPLGPASSLPQSFLLKCLEQVRKIQGDGAALQEKLVSECATYKLCHPEELVLLGHSLGIPWAPLSSCPSQALQLAGCLSQLHSGLFLYQGLLQALEGISPELGPTLDTLQLDVADFATTIWQQMEELGMAPALQPTQGAMPAFASAFQRRAGGVLVASHLQSFLEVSYRVLRHLAQP
modifications: pegfilgrastim: PEGylated, N-terminal Met
notes: called GM-CSF in the text
[10]; both studies
  rates of febrile Neutropenia: 10-20%
[10]; metastatic breast cancer, administered day 2 of chemotherapy cycle, both studies
  mean days of severe Neutropenia: approximately 1.7 days
